ChEMBL document CHEMBL1124715 (J Med Chem, 1990)

biological target: Serotonin 2 (5-HT2) receptor (Rattus norvegicus, UniProt P30994+P08909+P14842); test: Binding affinity against 5-hydroxytryptamine 2 receptor of rat frontal cortex using [3H]ketanserin radioligand; assay type: tissue-based

SMILES | Ki
COc1cc(C(=O)O)c(OC)cc1CC(C)N.Cl (centres undefined) | > 50000 nM
CCCCCCCCc1cc(OC)c(CC(C)N)cc1OC.Cl (centres undefined) | 3 nM
COc1cc(CC(C)N)c(OC)cc1Cc1ccccc1.Cl (centres undefined) | 7 nM
COc1cc(CC(C)N)c(OC)cc1C#N.Cl (centres undefined) | 2400 nM
CCC(=O)c1cc(OC)c(CC(C)N)cc1OC.Cl (centres undefined) | 735 nM
CCCCCCc1cc(OC)c(CC(C)N)cc1OC.Cl (centres undefined) | 2.5 nM
COc1cc(CC(C)N)c(OC)cc1CCCc1ccccc1.Cl (centres undefined) | 10 nM
CCCOC(=O)c1cc(OC)c(CC(C)N)cc1OC (centres undefined) | 2460 nM
COc1cc(C(=N)N)c(OC)cc1CC(C)N (centres undefined) | 7 nM
CCCNC(=O)c1cc(OC)c(CC(C)N)cc1OC (centres undefined) | 7550 nM
COc1cc(CC(C)N)c(OC)cc1I (centres undefined) | 19 nM
COc1cc(CC(C)N)c(OC)cc1N (centres undefined) | 26000 nM
COc1cc(CC(C)N)c(OC)cc1Cl (centres undefined) | 218 nM
CCCCOC(=O)c1cc(OC)c(CC(C)N)cc1OC (centres undefined) | 1530 nM
CCCCc1cc(OC)c(CC(C)N)cc1OC (centres undefined) | 58 nM
CCOc1cc(OC)c(CC(C)N)cc1OC (centres undefined) | 2200 nM
COc1cc(C(C)C)c(OC)cc1CC(C)N (centres undefined) | 76 nM
COc1cc(C(C)(C)C)c(OC)cc1CC(C)N (centres undefined) | 19 nM
COc1cc(CC(C)N)c(OC)cc1O (centres undefined) | > 50000 nM
